Laboratory results from patent US20250361230A1, “LATS Inhibitors and Uses Thereof” (The USA, as Represented by the Secretary, Dept. of Heath …, priority 2022, published 2025).
Like-named read-outs stand apart in the source and are kept apart here. Blank lines part the entries; values can stand above or below the molecule they belong to.

How the values were obtained:
Format in all cases: biochemical
[1] = molecular target: AKT (Homo sapiens, UniProt P31749); test: RBC HotSpot kinase assay (33P-ATP, P81 filter-binding), AKT; details: read-out: AKT IC50
Sequence of AKT (P31749 whole entry): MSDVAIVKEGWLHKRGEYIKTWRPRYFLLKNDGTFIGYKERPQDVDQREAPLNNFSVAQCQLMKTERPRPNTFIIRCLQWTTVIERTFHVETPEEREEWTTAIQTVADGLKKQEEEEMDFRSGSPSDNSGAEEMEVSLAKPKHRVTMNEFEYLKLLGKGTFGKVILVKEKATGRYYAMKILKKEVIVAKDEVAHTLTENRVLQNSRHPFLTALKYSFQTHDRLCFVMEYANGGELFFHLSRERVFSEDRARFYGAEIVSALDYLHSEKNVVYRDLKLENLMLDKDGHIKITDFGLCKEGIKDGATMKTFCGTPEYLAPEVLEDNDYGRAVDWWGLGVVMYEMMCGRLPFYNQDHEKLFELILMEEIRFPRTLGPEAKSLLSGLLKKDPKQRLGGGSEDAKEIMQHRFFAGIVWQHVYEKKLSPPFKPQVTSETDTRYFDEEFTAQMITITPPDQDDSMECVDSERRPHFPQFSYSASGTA
Outline: (§1)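 Kinase in Hepes pH 7.5 buffer with Mg2+, EGTA, Brij35, BSA, vanadate, DTT and 1% DMSO, plus required cofactors and substrate, was preincubated 20 min at room temperature with compound. Reaction was started with 33P-ATP and run 2 h, then detected by P81 filter binding. IC50 (nM) came from 10-point singlet curves.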

[2] = molecular target: T1, LATS2 (Homo sapiens, UniProt Q9NRM7); test: RBC HotSpot kinase assay (33P-ATP, P81 filter-binding), LATS2; details: read-out: LATS2 IC50
T1 sequence (Q9NRM7 1-1088): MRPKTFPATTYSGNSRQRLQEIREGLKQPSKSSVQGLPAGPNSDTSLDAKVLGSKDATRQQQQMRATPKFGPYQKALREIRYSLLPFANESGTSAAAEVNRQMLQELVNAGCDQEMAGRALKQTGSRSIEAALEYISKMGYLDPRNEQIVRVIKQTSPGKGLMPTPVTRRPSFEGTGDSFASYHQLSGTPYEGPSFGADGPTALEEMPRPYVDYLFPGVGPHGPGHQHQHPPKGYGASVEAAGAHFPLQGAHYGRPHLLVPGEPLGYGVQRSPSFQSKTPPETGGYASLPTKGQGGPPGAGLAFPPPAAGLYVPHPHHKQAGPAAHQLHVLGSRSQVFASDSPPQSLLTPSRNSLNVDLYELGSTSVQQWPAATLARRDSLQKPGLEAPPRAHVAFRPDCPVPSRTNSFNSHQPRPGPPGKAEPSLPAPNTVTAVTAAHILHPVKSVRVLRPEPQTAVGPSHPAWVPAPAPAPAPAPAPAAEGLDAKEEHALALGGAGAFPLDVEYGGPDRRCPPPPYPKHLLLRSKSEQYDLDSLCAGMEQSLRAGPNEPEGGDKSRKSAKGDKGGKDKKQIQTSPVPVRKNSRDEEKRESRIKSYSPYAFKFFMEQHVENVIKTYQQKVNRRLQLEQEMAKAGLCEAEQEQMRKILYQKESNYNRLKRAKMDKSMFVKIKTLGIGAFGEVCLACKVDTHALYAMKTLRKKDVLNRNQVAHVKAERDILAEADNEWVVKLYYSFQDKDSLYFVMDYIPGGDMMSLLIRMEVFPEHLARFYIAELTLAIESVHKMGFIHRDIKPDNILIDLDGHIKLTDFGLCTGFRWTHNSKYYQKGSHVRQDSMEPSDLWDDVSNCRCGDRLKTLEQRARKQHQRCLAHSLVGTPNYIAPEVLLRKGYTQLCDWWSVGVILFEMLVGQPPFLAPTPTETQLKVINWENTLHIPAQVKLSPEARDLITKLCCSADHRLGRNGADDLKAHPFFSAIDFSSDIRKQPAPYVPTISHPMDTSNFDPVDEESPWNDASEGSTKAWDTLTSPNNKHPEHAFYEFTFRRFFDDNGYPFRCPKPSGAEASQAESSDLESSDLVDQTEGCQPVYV
Outline: as §1

[3] = molecular target: T2, LATS1 (Homo sapiens, UniProt O95835); test: RBC HotSpot kinase assay (33P-ATP, P81 filter-binding), LATS1; details: read-out: LATS1 IC50
T2 sequence (O95835 1-1130): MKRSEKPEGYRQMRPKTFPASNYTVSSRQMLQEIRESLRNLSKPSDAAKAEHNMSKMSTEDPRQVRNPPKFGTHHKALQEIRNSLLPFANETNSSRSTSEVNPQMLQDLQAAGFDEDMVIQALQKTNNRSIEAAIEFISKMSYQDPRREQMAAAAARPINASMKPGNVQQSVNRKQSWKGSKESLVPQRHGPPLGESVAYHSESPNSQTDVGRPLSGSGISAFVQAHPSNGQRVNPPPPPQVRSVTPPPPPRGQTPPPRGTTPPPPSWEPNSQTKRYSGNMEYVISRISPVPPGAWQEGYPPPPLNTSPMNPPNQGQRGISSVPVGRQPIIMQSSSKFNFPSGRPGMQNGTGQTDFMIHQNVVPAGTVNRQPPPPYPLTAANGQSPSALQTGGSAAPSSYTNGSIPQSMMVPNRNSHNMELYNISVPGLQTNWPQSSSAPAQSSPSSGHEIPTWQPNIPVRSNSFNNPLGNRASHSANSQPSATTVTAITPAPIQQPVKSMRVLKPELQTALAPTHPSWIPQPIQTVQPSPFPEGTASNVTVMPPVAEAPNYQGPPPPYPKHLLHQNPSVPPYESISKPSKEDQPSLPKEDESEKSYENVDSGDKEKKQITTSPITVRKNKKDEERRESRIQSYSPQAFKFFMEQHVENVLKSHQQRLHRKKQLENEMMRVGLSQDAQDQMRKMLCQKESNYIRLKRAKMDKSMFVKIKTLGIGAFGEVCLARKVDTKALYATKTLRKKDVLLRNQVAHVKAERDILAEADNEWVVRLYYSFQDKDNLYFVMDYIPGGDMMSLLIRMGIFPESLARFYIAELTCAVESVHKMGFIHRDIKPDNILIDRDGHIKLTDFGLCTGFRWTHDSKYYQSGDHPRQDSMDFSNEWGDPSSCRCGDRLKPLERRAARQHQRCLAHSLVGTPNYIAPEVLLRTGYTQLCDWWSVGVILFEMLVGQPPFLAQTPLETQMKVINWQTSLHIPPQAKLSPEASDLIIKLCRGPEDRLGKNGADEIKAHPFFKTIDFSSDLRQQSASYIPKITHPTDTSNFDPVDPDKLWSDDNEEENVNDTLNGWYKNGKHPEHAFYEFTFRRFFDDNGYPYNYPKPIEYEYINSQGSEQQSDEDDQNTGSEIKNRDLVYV
Outline: as §1

[4] = Table 28, biochemical kinase assay
[5] = Table 32, biochemical kinase assay

IC50 [1, 5]: 4.6 nM
IC50 [2, 5]: 11.1 nM
IC50 [3, 5]: 5.7 nM
Compound: NCC(O)(c1ccc(Cl)cc1)c1ccc(-c2ccnc3[nH]cc(F)c23)cc1 (stereo not drawn) [Compound 1002, 2-amino-1-(4-chlorophenyl)-1-(4-(3-fluoro-1H-pyrrolo[2,3-b]pyridin-4-yl)phenyl)ethan-1-ol]

IC50 [1, 5]: 18.1 nM
IC50 [2, 5]: 5.3 nM
IC50 [3, 5]: 4 nM
Compound: COC(=O)c1c[nH]c2nccc(-c3ccc(C(O)(CN)c4ccc(Cl)cc4)cc3)c12 (stereo not drawn) [Compound 1004, Methyl 4-(4-(2-amino-1-(4-chlorophenyl)-1-hydroxyethyl)phenyl)-1H-pyrrolo[2,3-b]pyridine-3-carboxylate]

IC50 [1, 5]: 1.7 nM
IC50 [2, 5]: 8.9 nM
IC50 [3, 5]: 5.1 nM
Compound: NCC(O)(c1ccc(Cl)cc1)c1ccc(-c2ccnc3[nH]cc(Br)c23)cc1 (stereo not drawn) [Compound 1005, 2-amino-1-(4-(3-bromo-1H-pyrrolo[2,3-b]pyridin-4-yl)phenyl)-1-(4-chlorophenyl)ethan-1-ol]

IC50 [1, 5]: 230 nM
IC50 [2, 5]: 20 nM
IC50 [3, 5]: 23 nM
Compound: NCC(O)(c1ccc(Cl)cc1)c1ccc(-c2ccnc3[nH]cc(-c4ccccc4)c23)cc1 (stereo not drawn) [Compound 1006, 2-amino-1-(4-chlorophenyl)-1-(4-(3-phenyl-1H-pyrrolo[2,3-b]pyridin-4-yl)phenyl)ethan-1-ol]

IC50 [1, 5]: 35.2 nM
IC50 [2, 5]: 6.1 nM
IC50 [3, 5]: 4.3 nM
Compound: NCC(O)(c1ccc(Cl)cc1)c1ccc(-c2ccnc3[nH]cc(-c4cccnc4)c23)cc1 (stereo not drawn) [Compound 1007, 2-amino-1-(4-chlorophenyl)-1-(4-(3-(pyridin-3-yl)-1H-pyrrolo[2,3-b]pyridin-4-yl)phenyl)ethan-1-ol]

Second part, the molecule before the results:

Compound: OC1(c2ccc(-c3ccnc4[nH]cc(F)c34)cc2)CC2(CNC2)C1 [Compound 319, 6-(4-(3-fluoro-1H-pyrrolo[2,3-b]pyridin-4-yl)phenyl)-2-azaspiro[3.3]heptan-6-ol]
IC50 [1, 4]: 378 nM
IC50 [2, 4]: 29.3 nM
IC50 [3, 4]: 66 nM

Compound: NCC(O)(c1ccc(Cl)cc1)c1ccc(-c2ccnc3[nH]ccc23)cc1 (stereo not drawn) [Compound 1001, 1-(4-(1H-pyrrolo[2,3-b]pyridin-4-yl)phenyl)-2-amino-1-(4-chlorophenyl)ethan-1-ol]
IC50 [1, 5]: 0.6 nM
IC50 [2, 5]: 2.1 nM
IC50 [3, 5]: 1.8 nM

Compound: NCC(O)(c1ccc(Cl)cc1)c1ccc(-c2ccnc3[nH]cc(Br)c23)nc1 (stereo not drawn) [Compound 1011, 2-amino-1-(6-(3-bromo-1H-pyrrolo[2,3-b]pyridin-4-yl)pyridin-3-yl)-1-(4-chlorophenyl)ethan-1-ol]
IC50 [1, 5]: 1 nM
IC50 [2, 5]: < 0.5 nM
IC50 [3, 5]: 0.9 nM

Compound: NCC(=O)NCC(O)(c1ccc(Cl)cc1)c1ccc(-c2ccnc3[nH]cc(Cl)c23)cc1 (stereo not drawn) [Compound 1021, 2-amino-N-(2-(4-(3-chloro-1H-pyrrolo[2,3-b]pyridin-4-yl)phenyl)-2-(4-chlorophenyl)-2-hydroxyethyl) acetamide]
IC50 [1, 5]: < 0.5 nM
IC50 [2, 5]: 1.6 nM
IC50 [3, 5]: 3.7 nM

Compound: Cc1cc(-c2ccnc3[nH]cc(C#N)c23)cc(F)c1[C@@]1(O)[C@H](C)CN(C2CCS(=O)(=O)CC2)C[C@@H]1C [Compound 2002, 4-(4-((3S,4s,5R)-1-(1,1-dioxidotetrahydro-2H-thiopyran-4-yl)-4-hydroxy-3,5-dimethylpiperidin-4-yl)-3-fluoro-5-methylphenyl)-1H-pyrrolo[2,3-b]pyridine-3-carbonitrile]
IC50 ([1]; biochemical kinase inhibition): 188 nM
IC50 ([2]; biochemical kinase inhibition): 4.6 nM
IC50 ([3]; biochemical kinase inhibition): 10.9 nM

Compound: Cc1cc(-c2ccnc3[nH]cc(C#N)c23)cc(F)c1[C@@]1(O)[C@H](C)CN(C(=O)CN)C[C@@H]1C [Compound 2004, 4-(3-fluoro-4-((3S,4s,5R)-1-glycyl-4-hydroxy-3,5-dimethylpiperidin-4-yl)-5-methylphenyl)-1H-pyrrolo[2,3-b]pyridine-3-carbonitrile]
IC50 ([1]; biochemical kinase inhibition): 118 nM
IC50 ([2]; biochemical kinase inhibition): 2 nM
IC50 ([3]; biochemical kinase inhibition): 6.7 nM

Compound: Cc1cc(-c2ccnc3[nH]cc(C#N)c23)ccc1[C@@]1(O)[C@H](C)CN(C(=O)CN)C[C@@H]1C [Compound 2005, 4-(4-((3S,4s,5R)-1-glycyl-4-hydroxy-3,5-dimethylpiperidin-4-yl)-3-methylphenyl)-1H-pyrrolo[2,3-b]pyridine-3-carbonitrile]
IC50 ([1]; biochemical kinase inhibition): 22 nM
IC50 ([2]; biochemical kinase inhibition): 1.2 nM
IC50 ([3]; biochemical kinase inhibition): 3.3 nM
